Measurements: US5708007A, “2-(piperidin-4-yl, pyridin-4-yl and tetrahydropyridin-4-yl) benzofuran-7-ol and carbamate derivatives for treating memory dysfunction” (priority 1996, dated 1998)

target: T1, Brain AChE (Rattus norvegicus, UniProt P37136); experiment: biochemical; parameters: species or system rat (male Wistar); conditions: rat striatum homogenate; acetylthiocholine 5 mM final; pH 7.2; 10 min preincubation at 37° C.; log-probit analysis; read-out: Inhibitory Concentration (μM) Brain AChE
T1 construct: corpora striata dissected free, weighed and homogenized in 19 volumes; from tissue; host or cells: corpora striata of male Wistar rats, crude homogenate in 0.05M phosphate buffer
T1 sequence (P37136 32-614): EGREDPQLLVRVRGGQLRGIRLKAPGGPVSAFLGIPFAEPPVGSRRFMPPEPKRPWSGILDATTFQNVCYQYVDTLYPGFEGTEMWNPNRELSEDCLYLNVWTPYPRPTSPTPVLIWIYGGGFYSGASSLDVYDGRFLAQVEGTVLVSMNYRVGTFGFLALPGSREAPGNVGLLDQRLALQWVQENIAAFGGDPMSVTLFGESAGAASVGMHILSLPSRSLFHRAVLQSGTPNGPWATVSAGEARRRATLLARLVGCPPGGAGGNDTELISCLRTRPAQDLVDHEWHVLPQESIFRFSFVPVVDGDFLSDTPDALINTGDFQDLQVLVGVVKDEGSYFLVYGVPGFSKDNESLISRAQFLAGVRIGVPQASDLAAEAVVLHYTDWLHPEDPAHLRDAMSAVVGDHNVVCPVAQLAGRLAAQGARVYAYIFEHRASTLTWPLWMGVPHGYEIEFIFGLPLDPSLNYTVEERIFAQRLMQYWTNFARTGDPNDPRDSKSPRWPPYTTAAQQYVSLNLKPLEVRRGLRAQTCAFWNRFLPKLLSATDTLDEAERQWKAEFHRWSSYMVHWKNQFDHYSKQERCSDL
From the text: Cholinesterases are found throughout the body, both in the brain and in serum. However, only brain acetylcholinesterase (AChE) distribution is correlated with central cholinergic innervation. […] We have determined in vitro inhibition of acetylcholinesterase activity in rat striatum according to the method described below.
In Vitro Inhibition of Acetylcholinesterase Activity in Rat Striatum
The method described below was used in this invention for assaying anticholinesterase activity. This is a modification of the method of Ellman et al., Biochem. Pharmacol. 7, 88 (1961).
1. 0.05M Phosphate buffer, pH 7.2
(c) add (a) to (b) until pH reaches 7.2
4. A 2 mM stock solution of the test drug is made up in a suitable solvent and brought to volume with 0.5 mM DTNB (reagent 3). Drugs are serially diluted (1:10) such that the final concentration (in cuvette) is 10^-4 M and screened for activity. If active, IC50 values are determined from the inhibitory activity of subsequent concentrations.
Enzyme activity is measured with the Beckman DU-50 spectrophotometer. This method can be used for IC50 determinations and for measuring kinetic constants.
Reagents are added to the blank and sample cuvettes as follows:
This program also calculates the rate of absorbance change for each cuvette.
Substrate concentration is 10 mM diluted 1:2 in assay yielding final concentration of 5 mM.
IC50 values are calculated from log-probit analysis.

Q: With `CNC(=O)Oc1cccc2cc(C3CCN(C)CC3)oc12` [2-(1-METHYL-4-PIPERIDINYL)-BENZOFURAN-7-YL METHYL CARBAMATE] as the molecule, how does the IC50 read?
A: 1.8 µM

Q: How did the IC50 turn out when `CN(C)C(=O)Oc1cccc2cc(C3CCNCC3)oc12` [2-(4-PIPERIDINYL)BENZOFURAN-7-YL DIMETHYL CARBAMATE HEMIFUMARATE] was run?
A: 1.9 µM

Q: Which IC50 does the source give for `CNC(=O)Oc1cccc2cc(-c3ccncc3)oc12` [2-(4-PYRIDINYL)BENZOFURAN-7-YL METHYL CARBAMATE] here?
A: 1.2 µM
